Legend:
[1] = tested on: C1B domain derived from PKC; assay: Response of DAG-fllip-pm and DAG-fllip-em to phorbol ester (PMA); assay type: cell-based; conditions: phorbol ester (PMA) added
Experimental: It has been known that C1B domain derived from PKC is selectively bound to DAG. Therefore, this domain was selected as an LBD and the lipid second messenger detecting- and quantifying-probe (hereinafter, referred to as DAG-Fllip) was prepared. Localization domains to the plasma membrane and endomembranes are linked with DAG-fllip to prepare DAG-fllip-pm and DAG-fllip-em. After that, in order to confirm whether the DAG-fllip-pm and the DAG-fllip-em respond to DAG, the DAG-fllip-pm and the DAG-fllip-em were evaluated by using phorbol ester (PMA), which is a substance having a membrane permeability, and specifically bound to C1B domain.

PIP3 = assay: CFP/YFP emission ratio time course after PDGF stimulation of probe-expressing CHO-PDGFR cells; assay type: cell-based, Chinese hamster; conditions: for PIP3 in plasma membranes and endomembranes: stimulation by other peptide ligands instead of PDGF
Experimental: Ovarian cells of Chinese hamster (CHO) were cultured in Ham's F-12 medium supplemented with 10% fetal calf serum (FCS) at 37° C. in 5% CO2. The resulting CHO-PDGFR cells were plated onto glass-bottomed dishes, each of Fllip-pm, Fllip-pmR284C, Fllip-del and Fllip-em expression vectors were transfected with LipofectAMINE2000 reagent (manufactured by Life Technology) and left for 24 hours at 37° C. in 5% CO2.
After serum starvation with serum-free incubating medium, the medium was replaced with a Hank's balanced salt solution. Then, in accordance with a method already reported by the inventors (such as Non-Patent Documents 12 and 13), the cells were imaged at room temperature on a Carl Zeiss Axiovert 135 microscope with a cooled CCD camera, MicroMAX (Roper Scientific lnc, Tucson, Ariz.), controlled by MetaFluor. (Universal Imaging, West Chester, Pa.). The fluorescence images were obtained through 480±15 nm and 535±12.5 nm filters with a 40× oil immersion objective (Carl Zeiss, Jena, Germany). YFP images were detected by a confocal laser scanning microscope LSM 510 (Carl Zeiss).
Response of Fllip-pm to PIP3 produced by physiological stimulation was examined.
Fllip-pm was expressed in CHO-PDGFR cells stably expressing platelet-derived growth factor receptor (PDGFR). PDGF treatment promotes dimerization of PDGFR that results in phosphorylation of multiple tyrosine residues of PDGFR and its activation. PI3K is recruited to these tyrosine phosphorylation sites through its Src-homology 2 (SH2) domain, resulting in its activation (Schlessinger, J. (2000), Cell, 103, 211-225).
The time course of CFP/YFP-emission ratio when PDGF (50 ng/mL) was added to a cell expressing Fllip-pm at plasma membrane are shown in FIG. 6 and FIG. 7.
According to the same method as in Examples 4 and 5, response of Fllip-pmR284C, of which PHD was mutated not to bind to PIP3, was examined.
Fllip-em was expressed in the CHO-PDGFR cells by the same method as in Example 2. After that, the cells were stimulated with PDGF by the same method as in Example 5 and the time course of CFP/YFP emission ratio was measured.

[2] = PDGF 50 ng/mL, Fllip-pm at plasma membrane of CHO-PDGFR cells

Molecule: CCCCCCCCCCCCCC(=O)O[C@@H]1[C@@H](C)[C@@]2(O)[C@@H](C=C(CO)C[C@]3(O)C(=O)C(C)=C[C@@H]23)[C@@H]2C(C)(C)[C@]12OC(C)=O [phorbol ester]
- fluorescence intensity ratio (CFP/YFP) of DAG-fllip-em [1]: decreased
- fluorescence intensity ratio (CFP/YFP) of DAG-fllip-pm [1]: decreased

Molecule: insulin: other peptide ligand
- PIP3 in plasma membranes and endomembranes (PIP3): induced the PIP3 increase

Molecule: epidermal growth factors: other peptide ligand
- PIP3 in plasma membranes and endomembranes (PIP3): induced the PIP3 increase

Molecule: PDGF
- CFP/YFP emission ratio (PIP3; [2]): decreased immediately
- time for CFP/YFP emission ratio to reach a plateau (PIP3; [2]): 300 s
- extent of PIP3 increase in the endomembranes relative to that in the plasma membrane (PIP3; upon PDGF stimulation): twice to three times

Source: patent publication US7507555B2, “Probe for detecting and quantifying lipid second messenger and method of detecting and quantifying lipid second messenger using the same” (Japan Science and Technology Agency, priority 2003, dated 2009)
